According to the supplement of paper PMC10307832:

How the values were obtained:
Assay in all cases: relative viability (nuclei count vs DMSO), 5 days (fraction); higher = more cells survive
[1] = compound: C=C(c1ccc(C(=O)O)cc1)c1cc2c(cc1C)C(C)(C)CCC2(C)C [Bexarotene] + C[C@@H](Oc1cc(-c2cnn(C3CCNCC3)c2)cnc1N)c1c(Cl)ccc(F)c1Cl [Crizotinib] (partner 1 µM)
In short: (§1)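 Dosing by pin tool came one day after lung cancer cell lines were seeded in 1536-well plates, using either one drug or a fixed anchor-drug dose plus five library-drug doses (not always all listed) in √10 steps. After 5 days, nuclei were counted on 4× images. Relative viability is treated-well nuclei count divided by vehicle-well nuclei count, and values are medians of duplicate plates.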

[2] = compound: C=C(c1ccc(C(=O)O)cc1)c1cc2c(cc1C)C(C)(C)CCC2(C)C [Bexarotene] + COc1cccc2cc(-c3nc([C@H]4CC[C@H](C(=O)O)CC4)n4ncnc(N)c34)[nH]c12 [OSI-027] (partner 0.5 µM)
In short: as §1

[3] = compound: C=C(c1ccc(C(=O)O)cc1)c1cc2c(cc1C)C(C)(C)CCC2(C)C [Bexarotene] + N=C(N)NC(=N)NCCc1ccccc1 [Phenformin] (partner 250 µM)
In short: as §1

[4] = compound: C=C(c1ccc(C(=O)O)cc1)c1cc2c(cc1C)C(C)(C)CCC2(C)C [Bexarotene] + CC(=O)Nc1cccc(-n2c(=O)n(C3CC3)c(=O)c3c(Nc4ccc(I)cc4F)n(C)c(=O)c(C)c32)c1 [Trametinib] (partner 0.02 µM)
In short: as §1

Cell Line	relative viability ([1]; first compound 0.08 µM)	relative viability ([1]; first compound 0.253 µM)	relative viability ([1]; first compound 0.8 µM)	relative viability ([1]; first compound 2.53 µM)	relative viability ([1]; first compound 8 µM)	relative viability ([2]; first compound 0.08 µM)	relative viability ([2]; first compound 0.253 µM)	relative viability ([2]; first compound 0.8 µM)	relative viability ([2]; first compound 2.53 µM)	relative viability ([2]; first compound 8 µM)	relative viability ([3]; first compound 0.08 µM)	relative viability ([3]; first compound 0.253 µM)	relative viability ([3]; first compound 0.8 µM)	relative viability ([3]; first compound 2.53 µM)	relative viability ([3]; first compound 8 µM)	relative viability ([4]; first compound 0.08 µM)	relative viability ([4]; first compound 0.253 µM)	relative viability ([4]; first compound 0.8 µM)	relative viability ([4]; first compound 2.53 µM)	relative viability ([4]; first compound 8 µM)
NCI-H3122	0.238	0.261	0.233	0.276	0.337	1.09	1.09	1.05	0.989	1.07	0.379	0.367	0.359	0.385	0.372	0.25	0.229	0.191	0.238	0.224
PC-3 [JPC-3]	1.02	1.02	0.904	0.965	0.857	0.816	0.798	0.604	0.733	0.676	0.489	0.514	0.448	0.52	0.505	0.708	0.719	0.595	0.654	0.678
PC-14	0.912	1.04	1.04	0.946	0.841	0.88	0.938	0.743	0.836	0.647	0.611	0.61	0.523	0.435	0.522	0.708	0.901	0.961	0.818	0.821
RERF-LC-KJ	0.773	0.791	0.76	0.777	0.752	0.522	0.572	0.539	0.562	0.506	0.407	0.405	0.402	0.364	0.426	0.879	0.85	0.814	0.873	0.799
SK-LU-1	0.926	1.06		0.896	0.717	0.41	0.395		0.352	0.351	0.633	0.667		0.417	0.387	0.548	0.587		0.579	0.517
SK-MES-1	0.995	1.06	1.01	1.04	0.925	0.638	0.708	0.563	0.603	0.525	0.751	0.717	0.67	0.615	0.558	0.701	0.747	0.656	0.672	0.65
SW 1573	0.764	0.82	0.688	0.684	0.552	0.696	0.58	0.564	0.469	0.471	0.374	0.328	0.332	0.273	0.297	0.546	0.507	0.538	0.502	0.456
UMC-11	0.546	0.684	0.537	0.572	0.587	0.468	0.515	0.419	0.436	0.432	0.372	0.327	0.314	0.301	0.295	0.638	0.668	0.623	0.634	0.658
